Non-standard residues stand in square brackets, D forms with d. Residues, ends and D or L forms follow the SMILES beside them. dNMePhg = CN[C@@H](C(=O)O)c1ccccc1; NMePhg = CN[C@H](C(=O)O)c1ccccc1
Columns and labels:
[1] = In vitro concentration of compound required to inhibit 50% of nt-PA; set-up: species or system Homo sapiens
Plasminogen [2] = molecular target: T1, Plasminogen (Homo sapiens, UniProt P00747); experiment: In vitro concentration of compound required to inhibit 50% of Plasmin
Coagulation factor X [3] = molecular target: T2, Coagulation factor X (Bos taurus, UniProt P00743); experiment: In vitro concentration of compound required to inhibit 50% of Factor Xa
Serine protease 1 = molecular target: T3, Serine protease 1 (Bos taurus, UniProt P00760); experiment: In vitro concentration of compound required to inhibit 50% of trypsin
T3 sequence (P00760 whole entry): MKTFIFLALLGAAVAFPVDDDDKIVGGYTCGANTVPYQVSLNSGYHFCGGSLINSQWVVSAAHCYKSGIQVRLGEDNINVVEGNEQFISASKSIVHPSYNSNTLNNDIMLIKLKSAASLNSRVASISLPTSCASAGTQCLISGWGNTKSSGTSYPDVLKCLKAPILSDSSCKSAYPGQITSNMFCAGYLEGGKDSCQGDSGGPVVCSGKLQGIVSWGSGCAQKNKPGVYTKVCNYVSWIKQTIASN

Plasma kallikrein [4] = molecular target: T4, Plasma kallikrein (Homo sapiens, UniProt P03952); experiment: In vitro concentration of compound required to inhibit 50% of Kallikrein
Prothrombin = Prothrombin (Bos taurus, UniProt P00735)
Description: In vitro concentration of compound required to inhibit 50% of 6 nM thrombin

Coagulation factor X [5] = molecular target: T2, Coagulation factor X; experiment: In vitro concentration of compound required to inhibit 50% of factor Xa
Plasma kallikrein [6] = molecular target: T4, Plasma kallikrein; experiment: In vitro concentration of compound required to inhibit 50% of kallikrein
Plasminogen [7] = molecular target: T1, Plasminogen; experiment: In vitro concentration of compound required to inhibit 50% of plasmin

T1 sequence (P00747 97-580 limits assumed): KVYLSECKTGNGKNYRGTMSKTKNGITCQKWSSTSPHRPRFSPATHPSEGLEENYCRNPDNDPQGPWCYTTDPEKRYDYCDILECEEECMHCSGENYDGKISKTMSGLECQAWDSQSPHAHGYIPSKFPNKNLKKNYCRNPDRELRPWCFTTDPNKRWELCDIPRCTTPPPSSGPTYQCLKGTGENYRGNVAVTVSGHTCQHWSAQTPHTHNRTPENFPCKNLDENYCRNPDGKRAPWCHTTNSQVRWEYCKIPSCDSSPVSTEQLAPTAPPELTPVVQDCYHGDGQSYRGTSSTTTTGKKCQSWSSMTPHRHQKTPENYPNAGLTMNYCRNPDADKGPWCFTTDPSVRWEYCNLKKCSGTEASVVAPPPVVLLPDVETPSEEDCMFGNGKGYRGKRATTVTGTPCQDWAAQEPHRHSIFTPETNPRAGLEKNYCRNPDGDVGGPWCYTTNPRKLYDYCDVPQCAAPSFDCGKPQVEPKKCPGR
T1 sequence (P00747 581-810 limits assumed): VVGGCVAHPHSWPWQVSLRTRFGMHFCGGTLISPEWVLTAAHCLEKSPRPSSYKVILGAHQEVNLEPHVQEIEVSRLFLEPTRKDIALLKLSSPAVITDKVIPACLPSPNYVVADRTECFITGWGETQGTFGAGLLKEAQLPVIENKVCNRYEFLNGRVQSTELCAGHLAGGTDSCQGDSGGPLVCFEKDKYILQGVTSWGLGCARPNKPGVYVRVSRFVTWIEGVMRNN
T2 sequence (P00743 41-180 limits assumed): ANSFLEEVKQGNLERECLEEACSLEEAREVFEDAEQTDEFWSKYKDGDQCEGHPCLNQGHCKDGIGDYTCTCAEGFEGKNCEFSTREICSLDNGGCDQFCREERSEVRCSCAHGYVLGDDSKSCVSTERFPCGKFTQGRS
T2 sequence (P00743 234-492 limits assumed): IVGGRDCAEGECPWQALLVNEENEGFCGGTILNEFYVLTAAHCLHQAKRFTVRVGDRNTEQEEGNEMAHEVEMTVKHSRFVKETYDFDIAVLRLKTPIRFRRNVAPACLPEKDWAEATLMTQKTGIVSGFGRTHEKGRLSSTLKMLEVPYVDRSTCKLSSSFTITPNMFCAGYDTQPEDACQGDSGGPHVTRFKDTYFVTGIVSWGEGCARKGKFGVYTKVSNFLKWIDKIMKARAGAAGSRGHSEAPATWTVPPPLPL
T4 sequence (P03952 20-390 limits assumed): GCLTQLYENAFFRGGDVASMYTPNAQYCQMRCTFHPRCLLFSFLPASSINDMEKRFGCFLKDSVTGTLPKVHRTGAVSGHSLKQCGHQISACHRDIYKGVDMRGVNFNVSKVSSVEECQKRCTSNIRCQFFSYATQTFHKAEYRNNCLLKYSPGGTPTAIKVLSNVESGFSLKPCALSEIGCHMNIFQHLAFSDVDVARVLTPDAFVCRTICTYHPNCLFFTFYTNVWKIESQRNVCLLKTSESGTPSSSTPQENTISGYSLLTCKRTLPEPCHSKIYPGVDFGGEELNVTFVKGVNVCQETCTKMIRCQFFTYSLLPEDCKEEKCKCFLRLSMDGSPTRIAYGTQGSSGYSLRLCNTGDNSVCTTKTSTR
T4 sequence (P03952 391-638 limits assumed): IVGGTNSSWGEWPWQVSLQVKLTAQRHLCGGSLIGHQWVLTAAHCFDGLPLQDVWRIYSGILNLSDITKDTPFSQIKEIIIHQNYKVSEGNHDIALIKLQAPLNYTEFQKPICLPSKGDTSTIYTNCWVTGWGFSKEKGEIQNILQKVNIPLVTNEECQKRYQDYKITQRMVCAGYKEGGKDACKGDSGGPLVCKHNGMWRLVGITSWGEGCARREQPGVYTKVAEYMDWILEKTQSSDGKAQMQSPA

SMILES | IC50 [1] [µM] | IC50 (Serine protease 1) [µM] | IC50 (Prothrombin) [µM] | also measured
COC(=O)c1oc2c(sc3ccccc32)c1OC(=O)C(C)C | 160 | 29 |  | IC50 (Plasminogen [2]): 240 µM; IC50 (Coagulation factor X [3]): 0.1 µM; IC50 (Plasma kallikrein [4]): 7.2 µM
COC(=O)c1oc2c(sc3ccccc32)c1OC(=O)N(C)C |  |  | > 10 | 
COC(=O)c1oc2c(sc3ccccc32)c1OC |  |  | > 10 | 
CN[C@H](C(=O)N1CCC[C@H]1C(=O)N[C@@H](CCCNC(=N)N)C(=O)O)c1ccccc1 (H-[NMePhg]-Pro-Arg-OH) |  |  | 0.02 | 

The next lines start with results.

IC50 [1] [µM] | IC50 (Serine protease 1) [µM] | IC50 (Prothrombin) [µM] | SMILES | also measured
 |  | > 10 | COC(=O)c1oc2c(sc3ccccc32)c1O | 
43 | 0.02 |  | CN[C@@H](C(=O)N1CCC[C@H]1C(=O)N[C@H](C=O)CCCNC(=N)N)c1ccccc1 (H-[dNMePhg]-Pro-Arg-aldehyde) | IC50 (Coagulation factor X [5]): 2.2 µM; IC50 (Plasma kallikrein [6]): 12 µM; IC50 (Plasminogen [7]): 0.5 µM

Source: ChEMBL document CHEMBL1126451, “Characterization of LY806303 as a potent and selective inhibitor of thrombin” (Bioorg Med Chem Lett, 1992)
